From the kinase profiling compilation of Christmann-Franck et al. (2016)

Tests used:
Experiment in all cases: KINOMEscan competition binding
Conditions in all cases: compound 10.0 µM
[1] = target: ACVR1B (human) (UniProt P36896)
[2] = target: CDC42BPB (human) (UniProt Q9Y5S2)
[3] = target: CDK16 (human) (UniProt Q00536)
[4] = target: CDK4 CCND1 (human) (UniProt P11802+P24385)
[5] = target: CDKL5 (human) (UniProt O76039)
[6] = target: CLK2 (human) (UniProt P49760)
[7] = target: CSK (human) (UniProt P41240)
[8] = target: EPHA3 (human) (UniProt P29320)
[9] = target: FGR (human) (UniProt P09769)
[10] = target: FYN (human) (UniProt P06241)
[11] = target: HIPK1 (human) (UniProt Q86Z02)
[12] = target: IGF1R (human) (UniProt P08069)
[13] = target: IRAK4 (human) (UniProt Q9NWZ3)
[14] = target: MAP2K1 (human) (UniProt Q02750)
[15] = target: MAP3K13 (human) (UniProt O43283)
[16] = target: MAP4K1 (human) (UniProt Q92918)
[17] = target: MAP4K3 (human) (UniProt Q8IVH8)
[18] = target: MAPK15 (human) (UniProt Q8TD08)
[19] = target: MARK4 (human) (UniProt Q96L34)
[20] = target: OXSR1 (human) (UniProt O95747)
[21] = target: PAK3 (human) (UniProt O75914)
[22] = target: PIK3C2B (human) (UniProt O00750)
[23] = target: PIP4K2C (human) (UniProt Q8TBX8)
[24] = target: PIP5K1A (human) (UniProt Q99755)
[25] = target: PRKACB (human) (UniProt P22694)
[26] = target: PRKCD (human) (UniProt Q05655)
[27] = target: PRKCQ (human) (UniProt Q04759)
[28] = target: PTK2 (human) (UniProt Q05397)
[29] = target: RPS6KA1 KD2 (human) (UniProt Q15418)
[30] = target: STK25 (human) (UniProt O00506)
[31] = target: STK32C (human) (UniProt Q86UX6)
[32] = target: STK36 (human) (UniProt Q9NRP7)
[33] = target: TAOK2 (human) (UniProt Q9UL54)
[34] = target: TRPM6 (human) (UniProt Q9BX84)
[35] = target: TYRO3 (human) (UniProt Q06418)
[36] = target: WEE2 (human) (UniProt P0C1S8)
[37] = target: MAPKAPK2 (human) (UniProt P49137)
[38] = target: SRPK1 (human) (UniProt Q96SB4)
[39] = target: BMPR2 (human) (UniProt Q13873)
[40] = target: TIE1 (human) (UniProt P35590)

Sequence of IGF1R (human) (P08069 whole entry, looked up): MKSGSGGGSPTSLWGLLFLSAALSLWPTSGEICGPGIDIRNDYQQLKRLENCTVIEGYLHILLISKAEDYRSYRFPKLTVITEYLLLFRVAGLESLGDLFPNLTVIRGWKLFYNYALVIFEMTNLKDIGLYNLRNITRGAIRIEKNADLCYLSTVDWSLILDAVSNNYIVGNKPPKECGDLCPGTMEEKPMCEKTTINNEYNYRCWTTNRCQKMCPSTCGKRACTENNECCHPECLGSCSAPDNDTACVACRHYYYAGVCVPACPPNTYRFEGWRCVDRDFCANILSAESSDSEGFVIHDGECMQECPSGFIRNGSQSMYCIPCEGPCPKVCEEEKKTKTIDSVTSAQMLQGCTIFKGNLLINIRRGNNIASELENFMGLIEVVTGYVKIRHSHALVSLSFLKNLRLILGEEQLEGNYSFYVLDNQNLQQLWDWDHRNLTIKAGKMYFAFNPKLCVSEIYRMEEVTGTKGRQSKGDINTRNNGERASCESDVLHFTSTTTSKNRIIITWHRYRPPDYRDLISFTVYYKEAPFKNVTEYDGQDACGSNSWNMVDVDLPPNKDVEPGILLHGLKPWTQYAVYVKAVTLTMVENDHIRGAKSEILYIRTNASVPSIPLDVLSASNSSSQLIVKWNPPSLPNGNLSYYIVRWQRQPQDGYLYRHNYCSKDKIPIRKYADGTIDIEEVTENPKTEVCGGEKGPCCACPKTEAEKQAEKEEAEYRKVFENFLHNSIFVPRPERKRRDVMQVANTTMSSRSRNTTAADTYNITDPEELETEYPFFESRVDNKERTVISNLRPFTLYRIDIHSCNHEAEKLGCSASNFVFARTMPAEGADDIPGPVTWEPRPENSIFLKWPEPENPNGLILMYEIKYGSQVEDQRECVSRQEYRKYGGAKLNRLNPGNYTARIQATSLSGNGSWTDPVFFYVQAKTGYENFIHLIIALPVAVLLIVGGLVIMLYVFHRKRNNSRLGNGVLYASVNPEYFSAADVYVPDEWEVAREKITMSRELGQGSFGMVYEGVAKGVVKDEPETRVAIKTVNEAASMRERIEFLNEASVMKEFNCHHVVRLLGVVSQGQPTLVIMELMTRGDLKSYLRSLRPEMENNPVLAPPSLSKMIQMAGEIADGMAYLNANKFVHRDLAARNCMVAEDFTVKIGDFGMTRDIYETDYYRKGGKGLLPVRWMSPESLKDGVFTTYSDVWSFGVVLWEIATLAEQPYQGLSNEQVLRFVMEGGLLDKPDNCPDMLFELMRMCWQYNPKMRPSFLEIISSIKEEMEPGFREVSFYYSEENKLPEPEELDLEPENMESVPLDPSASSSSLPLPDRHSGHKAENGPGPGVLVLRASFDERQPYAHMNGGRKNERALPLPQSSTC
Sequence of EPHA3 (human) (P29320 whole entry, looked up): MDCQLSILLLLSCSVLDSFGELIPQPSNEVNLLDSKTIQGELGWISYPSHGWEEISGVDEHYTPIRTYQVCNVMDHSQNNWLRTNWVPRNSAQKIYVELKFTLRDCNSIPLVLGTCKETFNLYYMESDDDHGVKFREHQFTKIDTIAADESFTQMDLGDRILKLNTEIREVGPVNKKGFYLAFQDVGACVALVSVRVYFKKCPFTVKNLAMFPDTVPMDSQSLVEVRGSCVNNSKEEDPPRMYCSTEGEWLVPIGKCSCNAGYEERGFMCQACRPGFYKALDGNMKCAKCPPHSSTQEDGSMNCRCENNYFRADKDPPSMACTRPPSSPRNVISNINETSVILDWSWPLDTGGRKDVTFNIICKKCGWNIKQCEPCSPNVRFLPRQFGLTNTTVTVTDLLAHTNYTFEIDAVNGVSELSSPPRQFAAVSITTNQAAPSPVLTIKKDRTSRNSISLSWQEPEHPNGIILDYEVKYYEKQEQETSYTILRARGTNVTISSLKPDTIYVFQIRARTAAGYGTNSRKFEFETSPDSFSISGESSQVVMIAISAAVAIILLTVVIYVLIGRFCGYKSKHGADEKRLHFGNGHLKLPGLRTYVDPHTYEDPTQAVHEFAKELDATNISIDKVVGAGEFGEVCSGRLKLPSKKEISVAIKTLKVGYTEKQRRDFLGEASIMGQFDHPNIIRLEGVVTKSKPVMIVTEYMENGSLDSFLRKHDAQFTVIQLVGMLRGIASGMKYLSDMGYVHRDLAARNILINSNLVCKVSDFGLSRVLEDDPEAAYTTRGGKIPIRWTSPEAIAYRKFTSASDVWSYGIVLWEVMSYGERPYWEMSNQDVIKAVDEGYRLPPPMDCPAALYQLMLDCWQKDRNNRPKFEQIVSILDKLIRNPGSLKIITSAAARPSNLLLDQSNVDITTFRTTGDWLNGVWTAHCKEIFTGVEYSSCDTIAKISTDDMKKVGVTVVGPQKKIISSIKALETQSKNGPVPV
Sequence of MAP4K3 (human) (Q8IVH8 whole entry, looked up): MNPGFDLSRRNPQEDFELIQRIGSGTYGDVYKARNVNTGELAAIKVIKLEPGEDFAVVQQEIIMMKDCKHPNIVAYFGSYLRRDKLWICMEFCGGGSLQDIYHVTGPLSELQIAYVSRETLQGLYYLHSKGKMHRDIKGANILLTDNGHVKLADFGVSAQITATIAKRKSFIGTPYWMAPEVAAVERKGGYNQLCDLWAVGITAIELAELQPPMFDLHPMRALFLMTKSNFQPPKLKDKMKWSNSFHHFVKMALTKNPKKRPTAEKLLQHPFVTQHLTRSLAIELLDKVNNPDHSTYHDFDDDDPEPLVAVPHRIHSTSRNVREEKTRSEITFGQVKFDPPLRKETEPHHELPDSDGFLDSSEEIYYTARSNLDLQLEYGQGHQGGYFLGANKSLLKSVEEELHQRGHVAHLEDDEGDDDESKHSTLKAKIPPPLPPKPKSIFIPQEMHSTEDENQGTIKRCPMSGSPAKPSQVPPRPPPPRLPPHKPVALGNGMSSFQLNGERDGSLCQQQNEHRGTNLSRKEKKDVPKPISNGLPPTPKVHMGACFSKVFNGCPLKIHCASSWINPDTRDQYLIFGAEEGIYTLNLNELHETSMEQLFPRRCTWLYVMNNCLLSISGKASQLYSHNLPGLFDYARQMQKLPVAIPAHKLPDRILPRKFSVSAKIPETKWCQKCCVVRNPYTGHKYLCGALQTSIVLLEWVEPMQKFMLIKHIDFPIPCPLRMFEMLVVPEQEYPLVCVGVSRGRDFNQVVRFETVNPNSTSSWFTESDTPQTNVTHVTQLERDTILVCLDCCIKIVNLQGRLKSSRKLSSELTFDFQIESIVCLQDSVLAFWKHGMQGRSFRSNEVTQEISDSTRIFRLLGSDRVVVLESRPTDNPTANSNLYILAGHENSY
Sequence of CSK (human) (P41240 whole entry, looked up): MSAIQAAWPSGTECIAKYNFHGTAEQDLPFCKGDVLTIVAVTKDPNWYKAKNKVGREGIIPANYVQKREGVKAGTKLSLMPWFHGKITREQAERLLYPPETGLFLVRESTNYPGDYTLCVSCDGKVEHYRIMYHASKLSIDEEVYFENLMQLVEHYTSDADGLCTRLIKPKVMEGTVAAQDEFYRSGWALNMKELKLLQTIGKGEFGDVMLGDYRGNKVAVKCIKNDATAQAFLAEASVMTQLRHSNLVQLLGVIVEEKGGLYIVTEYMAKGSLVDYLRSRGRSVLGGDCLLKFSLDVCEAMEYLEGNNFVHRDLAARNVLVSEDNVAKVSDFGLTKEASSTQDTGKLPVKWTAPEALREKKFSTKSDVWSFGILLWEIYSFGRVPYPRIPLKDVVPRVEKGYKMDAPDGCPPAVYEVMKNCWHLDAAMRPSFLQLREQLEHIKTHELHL
Sequence of PIP4K2C (human) (Q8TBX8 whole entry, looked up): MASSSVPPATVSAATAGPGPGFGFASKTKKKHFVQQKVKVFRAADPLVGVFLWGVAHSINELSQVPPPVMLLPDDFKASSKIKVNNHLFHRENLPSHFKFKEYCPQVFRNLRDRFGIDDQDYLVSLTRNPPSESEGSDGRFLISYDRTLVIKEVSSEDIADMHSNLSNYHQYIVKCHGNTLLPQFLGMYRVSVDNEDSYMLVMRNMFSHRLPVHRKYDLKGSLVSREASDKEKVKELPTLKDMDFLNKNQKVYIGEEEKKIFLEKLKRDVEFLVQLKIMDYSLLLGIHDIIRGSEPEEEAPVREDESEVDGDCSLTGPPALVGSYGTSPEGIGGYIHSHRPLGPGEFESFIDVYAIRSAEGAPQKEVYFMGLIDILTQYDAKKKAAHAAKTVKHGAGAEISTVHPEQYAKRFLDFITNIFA
Sequence of PIP5K1A (human) (Q99755 whole entry, looked up): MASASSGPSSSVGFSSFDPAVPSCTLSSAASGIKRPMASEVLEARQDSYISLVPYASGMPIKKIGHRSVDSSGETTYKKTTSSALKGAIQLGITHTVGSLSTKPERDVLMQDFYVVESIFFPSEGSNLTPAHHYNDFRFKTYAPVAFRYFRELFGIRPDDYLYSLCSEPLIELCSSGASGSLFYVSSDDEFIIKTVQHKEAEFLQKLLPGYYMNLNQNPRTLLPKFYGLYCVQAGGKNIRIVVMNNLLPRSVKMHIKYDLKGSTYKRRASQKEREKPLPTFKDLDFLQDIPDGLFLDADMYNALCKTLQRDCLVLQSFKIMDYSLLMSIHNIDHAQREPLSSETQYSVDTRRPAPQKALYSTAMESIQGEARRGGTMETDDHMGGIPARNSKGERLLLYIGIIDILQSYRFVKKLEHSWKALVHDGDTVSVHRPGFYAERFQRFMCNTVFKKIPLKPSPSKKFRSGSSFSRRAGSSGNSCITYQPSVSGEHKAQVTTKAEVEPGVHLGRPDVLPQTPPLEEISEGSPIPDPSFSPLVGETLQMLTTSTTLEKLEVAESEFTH
Sequence of MAP2K1 (human) (Q02750 whole entry, looked up): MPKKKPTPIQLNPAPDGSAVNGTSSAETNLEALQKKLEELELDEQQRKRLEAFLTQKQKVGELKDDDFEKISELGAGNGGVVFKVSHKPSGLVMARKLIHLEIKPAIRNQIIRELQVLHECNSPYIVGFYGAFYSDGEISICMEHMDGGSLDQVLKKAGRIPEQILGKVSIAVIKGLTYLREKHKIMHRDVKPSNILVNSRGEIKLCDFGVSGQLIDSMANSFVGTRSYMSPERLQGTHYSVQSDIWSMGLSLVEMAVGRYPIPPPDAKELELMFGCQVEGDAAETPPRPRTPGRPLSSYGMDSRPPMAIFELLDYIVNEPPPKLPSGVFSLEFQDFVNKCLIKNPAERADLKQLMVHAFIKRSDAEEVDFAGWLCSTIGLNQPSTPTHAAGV

Row | SMILES | kinase still bound, per cent of control [1] | kinase still bound, per cent of control [2] | kinase still bound, per cent of control [4] | kinase still bound, per cent of control [5] | kinase still bound, per cent of control [6] | kinase still bound, per cent of control [7] | kinase still bound, per cent of control [8] | kinase still bound, per cent of control [9] | kinase still bound, per cent of control [11] | kinase still bound, per cent of control [12] | kinase still bound, per cent of control [13] | kinase still bound, per cent of control [14] | kinase still bound, per cent of control [15] | kinase still bound, per cent of control [16] | kinase still bound, per cent of control [17] | kinase still bound, per cent of control [18] | kinase still bound, per cent of control [19] | kinase still bound, per cent of control [20] | kinase still bound, per cent of control [21] | kinase still bound, per cent of control [22] | other results
1 | CC(=O)c1c(C)c2cnc(Nc3ccc(N4CCNCC4)cn3)nc2n(C2CCCC2)c1=O | 96% | 91% | 0% | 1% | 0.35% | 90% | 66% | 71% | 0.1% | 81% | 39% | 20% | 82% | 47% | 20% | 9.4% | 63% | 81% | 20% | 98% | kinase still bound, per cent of control [3]: 0.2%; kinase still bound, per cent of control [10]: 100%; kinase still bound, per cent of control [23]: 1%; kinase still bound, per cent of control [24]: 32%; kinase still bound, per cent of control [25]: 100%; kinase still bound, per cent of control [26]: 90%; kinase still bound, per cent of control [27]: 68%; kinase still bound, per cent of control [28]: 61%; kinase still bound, per cent of control [29]: 38%; kinase still bound, per cent of control [30]: 34%; kinase still bound, per cent of control [31]: 94%; kinase still bound, per cent of control [32]: 78%; kinase still bound, per cent of control [33]: 30%; kinase still bound, per cent of control [34]: 91%; kinase still bound, per cent of control [35]: 93%; kinase still bound, per cent of control [36]: 75%
2 | CCN(CCO)CCCOc1ccc2c(Nc3cc(CC(=O)Nc4cccc(F)c4)[nH]n3)ncnc2c1 | 88% | 100% | 92% | 50% | 67% | 24% | 62% | 82% | 40% | 100% | 76% | 32% | 100% | 76% | 51% | 100% | 100% | 100% | 57% | 58% | kinase still bound, per cent of control [37]: 100%; kinase still bound, per cent of control [23]: 51%; kinase still bound, per cent of control [24]: 73%; kinase still bound, per cent of control [25]: 100%; kinase still bound, per cent of control [26]: 91%; kinase still bound, per cent of control [27]: 100%; kinase still bound, per cent of control [28]: 64%; kinase still bound, per cent of control [29]: 69%; kinase still bound, per cent of control [38]: 100%; kinase still bound, per cent of control [30]: 66%; kinase still bound, per cent of control [31]: 78%; kinase still bound, per cent of control [32]: 37%; kinase still bound, per cent of control [33]: 98%; kinase still bound, per cent of control [34]: 100%; kinase still bound, per cent of control [35]: 100%; kinase still bound, per cent of control [36]: 100%
3 | CC1=C(C(=O)Nc2cc3cn[nH]c3cc2F)C(c2ccc(C(F)(F)F)cc2)CC(=O)N1 (stereo unspecified) | 94% | 22% | 71% | 45% | 54% | 100% | 88% | 78% | 75% | 98% | 97% | 73% | 83% | 87% | 77% | 80% | 100% | 92% | 36% | 100% | kinase still bound, per cent of control [39]: 97%; kinase still bound, per cent of control [3]: 100%; kinase still bound, per cent of control [10]: 82%; kinase still bound, per cent of control [37]: 100%; kinase still bound, per cent of control [23]: 98%; kinase still bound, per cent of control [24]: 89%; kinase still bound, per cent of control [26]: 39%; kinase still bound, per cent of control [27]: 54%; kinase still bound, per cent of control [28]: 79%; kinase still bound, per cent of control [29]: 83%; kinase still bound, per cent of control [38]: 100%; kinase still bound, per cent of control [30]: 64%; kinase still bound, per cent of control [31]: 48%; kinase still bound, per cent of control [32]: 96%; kinase still bound, per cent of control [33]: 96%; kinase still bound, per cent of control [40]: 75%; kinase still bound, per cent of control [34]: 70%; kinase still bound, per cent of control [35]: 100%; kinase still bound, per cent of control [36]: 66%
